Results taken from patent US20080280906A1, “Imidazolyl-Pyrimidine Compounds for Use in the Treatment of Proliferative Disorders” (priority 2005, published 2008).

Biological target: T1, CDK2/Cyclin E (Homo sapiens, UniProt P24941)
T1 construct: The open reading frames of CDK2 and Cyclin E were isolated by reverse transcriptase-PCR; made in house; host or cells: SF21 (Spodoptera frugiperda) insect cells, baculovirus co-infection
Test: in vitro kinase assay, Scintillation Proximity Assay (SPA), [γ-33-P]-ATP incorporation into GST-Rb
Assay type: biochemical
Conditions: GST-Rb substrate, 0.2 μM ATP, 60 minutes room temperature, read-out: CDK2 inhibitory activity IC50
Experimental: The compounds were tested in an in vitro kinase assay in 96 well format using Scintillation Proximity Assay (SPA—obtained from Amersham) for measuring incorporation of [γ-33-P]-Adenosine Triphosphate into a test substrate (GST-Retinoblastoma protein; GST-Rb). In each well was placed the compound to be tested (diluted in DMSO and water to correct concentrations) and in control wells either roscovitine as an inhibitor control or DMSO as a positive control. […]
The plates were sealed with Topseal-S plate sealers, left for two hours then spun at 2500 rpm, 1124×g., for 5 minutes. The plates were read on a Topcount for 30 seconds per well. […]
E. coli paste was resuspended in 10 ml/g of NETN buffer (50 mM Tris pH 7.5, 120 mM NaCl, 1 mM EDTA, 0.5% v/v NP-40, 1 mM PMSF, 1 ug/ml leupeptin, 1 ug/ml aprotinin and 1 ug/ml pepstatin) and sonicated for 2×45 seconds per 100 ml homogenate. […] The final product was analysed by Sodium Dodeca Sulfate (SDS) PAGE (Polyacrylamide gel) using 8-16% Tris-Glycine gels (Novex, San Diego, USA).
The open reading frames of CDK2 and Cyclin E were isolated by reverse transcriptase-PCR using HeLa cell and activated T cell mRNA as a template and cloned into the insect expression vector pVL1393 (obtained from Invitrogen 1995 catalogue number: V1392-20). […]

IC50: 3 nM
SMILES: Cc1ncc(-c2ccnc(Nc3ccc(C(=O)N4CCOCC4)cc3)n2)n1C(C)C [Example 14]
